{"source": "patent US10640466B2", "about": "“Anthracene based compounds and their uses” (UNIVERSITY OF HERTFORDSHIRE HIGHER EDUCATION CORPORATION, priority 2015, dated 2020)", "key": {"S100P/RAGE function": {"target": "T1, S100P/RAGE function (Homo sapiens, UniProt P25815)", "T1 sequence (P25815 1-95)": "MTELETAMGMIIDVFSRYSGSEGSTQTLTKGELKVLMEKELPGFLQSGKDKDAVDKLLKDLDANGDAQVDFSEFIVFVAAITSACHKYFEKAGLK", "conditions": "in vitro studies; cited from earlier work"}, "Panc-1 cells [1]": {"system": "Panc-1 cells", "assay": "Matrigel invasion assay, Panc-1", "type": "cell-based, Human", "conditions": "data not shown", "description": "(§1) Compound 2 was one of seventeen compounds from the virtual screen that were subjected to a Matrigel invasion assay (Corning®, USA) screening against BxPC-3 and Panc-1 pancreatic cancer cells.\n(§2) All reagents for in vitro studies were purchased from Sigma Aldrich (Dorset, UK) unless otherwise specified. Human pancreatic cancer cells, Panc-1 (ATCC® CRL-1469™) and BxPC-3 (ATCC® CRL-1687™), were purchased from LGC Standards (LGC Ltd., Middlesex, UK). Both were cultured in their respective culture medium—Dulbecco Modified Eagle Medium (DMEM) for Panc-1 and RPMI-1640 for BxPC-3 supplemented with 10% v/v Foetal Bovine Serum (FBS), 200U Penicillin/Streptomycin solution, and 2 mM L-glutamine. Both cells were maintained at 37° C. in a 5% humidified CO2 atmosphere and passaged at least three times a week when they have reached about 70% confluency using a standardised trypsinisation protocol. […]\n(§3) Matrigel invasion assay were carried out using transwell inserts with 8-μm pore size (BD-Bioscience, Oxford, UK) and Biocoat Matrigel Invasion plates (BD-Bioscience, Oxford, UK). […] The number of cells from five adjacent fields of view from each of the membranes were counted at a ×10 magnification to obtain the average number of cells per field. Data are expressed as the percent invasion through the Matrigel matrix and membrane relative to the invasion through the control membrane."}, "Panc-1 cells [2]": {"system": "Panc-1 cells", "assay": "MTS cell proliferation assay, Panc-1", "type": "cell-based, Human", "description": "(§4) FIG. 3 illustrates the anti-proliferative effect of cromolyn on pancreatic cancer cells. FIG. 3A illustrates BxPC-3, and FIG. 3B illustrates Panc-1 cells. Cells were seeded overnight (10^4 cells/well) in 96 well plates in complete medium supplemented with 10% v/v FBS, 2 mM L-glutamine and 200 U Penicillin/Streptomycin solution. Compounds were serially diluted into the wells and cell proliferation assessed using MTS assay after 24, 48, and 72 hours. Results are expressed as mean±SEM with n=4. P value of <0.05 (*), <0.01 (**), <0.001 (***) and <0.0001 (****) was determined relative to control using 2-Way ANOVA. Post-test comparisons were made using Bonferroni test at 95% confidence interval;\nFIG. 5 illustrates anti-proliferative effect of compounds 2 (A), 3 (B), 8 (C), 26 (D) and 7 (E) on Panc-1 cells. Panc-1 cells were seeded overnight (10^4 cells/well) in 96-well plates in complete DMEM medium supplemented with 10% v/v FBS, 1% v/v L-glutamine and 200 U Penicillin/Streptomycin solution. Compounds were serially diluted into the wells and cell proliferation analysed using MTS assay after 24, 48, and 72 hours. Results are expressed as mean±SEM with n=4. P value of <0.05 (*), <0.01 (**), <0.001 (***) and <0.0001 (****) was determined relative to control using 2-Way ANOVA. Post-test comparisons were made Bonferroni test at 95% confidence interval; and\nas §2, with “protocol. Cromolyn was purchased as a sodium salt while compounds 2, 3, 7, 8 and 26 were synthesised, characterised and purified at the University of Hertfordshire.” for “protocol.”\nPancreatic cancer cells (1×10^5 cells/mL) in 100 μL complete cell culture medium were plated in 96-well plates (Sigma-Aldrich, Poole, UK) and incubated overnight at 37° C., 5% CO2 atmosphere. […] Plates were incubated for 90 minutes before reading the absorbance at 492 nm using a Multiskan Ascent 96/384 plate reader (Thermo Scientific, Loughborough, UK). […]\nFor data analysis, background noise (media only wells) was subtracted from all wells. DMSO absorbance at 1, 10, 100 and 1000 μM was subtracted from wells with sample compounds before an average of all four replicates was taken. […]"}, "BxPC-3 cells [3]": {"system": "BxPC-3 cells", "assay": "Matrigel invasion assay, BxPC-3", "type": "cell-based, Human", "conditions": "48 h", "description": "FIG. 2 illustrates the effect of 2 and cromolyn (100 μM) BxPC-3 invasion. FIG. 2A illustrates the results when compound 2 was added to serum-free medium in the upper compartment of Matrigel invasion chamber along with the BxPC-3 cells; while media with 10% serum was added to lower chamber. After 48 hours, cells that had invaded onto the lower surface of the membrane were stained using Giemsa stain and cells in 5 different fields were counted for invasion studies. Results are expressed as the mean±SEM. P value of <0.05 (*), <0.01 (**) and <0.001 (***) was determined relative to control using 2-Way ANOVA. Photographs of representative membranes for cells after Giemsa staining when the cells were exposed in FIGS. 2B, 2C, 2D and 2E;\nas §1\nas §2, with “L-glutamine.” for “L-glutamine. Both cells were maintained at 37° C. in a 5% humidified CO2 atmosphere and passaged at least three times a week when they have reached about 70% confluency using a standardised trypsinisation protocol.”\nas §3"}, "BxPC-3 cells [4]": {"system": "BxPC-3 cells", "assay": "MTS cell proliferation assay, BxPC-3", "type": "cell-based, Human", "conditions": "for anti-proliferative effect on BxPC-3: 1 and 10 μM", "description": "as §4\nFIG. 4 illustrates the anti-proliferative effects of compounds 2 (A), 3 (B), 8 (C), 26 (D) and 7 (E) on BxPC-3 cells. BxPC-3 cells were seeded overnight (10^4 cells/well) in 96-well plates in complete RPMI-1640 medium supplemented with 10% v/v FBS, 2 mM L-glutamine and 200 U Penicillin/Streptomycin solution. Compounds were serially diluted into the wells and cell proliferation assessed using MTS assay after 24, 48, and 72 hours. Results are expressed as mean±SEM with n=4. P value of <0.05 (*), <0.01 (**), <0.001 (***) and <0.0001 (****) was determined relative to control using 2-Way ANOVA. Post-test comparisons were made using Bonferroni test at 95% confidence interval;\nAll reagents for in vitro studies were purchased from Sigma Aldrich (Dorset, UK) unless otherwise specified. Human pancreatic cancer cells, Panc-1 (ATCC® CRL-1469™) and BxPC-3 (ATCC® CRL-1687™), were purchased from LGC Standards (LGC Ltd., Middlesex, UK). Both were cultured in their respective culture medium—Dulbecco Modified Eagle Medium (DMEM) for Panc-1 and RPMI-1640 for BxPC-3 supplemented with 10% v/v Foetal Bovine Serum (FBS), 200U Penicillin/Streptomycin solution, and 2 mM L-glutamine. Both cells were maintained at 37° C. in a 5% humidified CO2 atmosphere and passaged at least three times a week when they have reached about 70% confluency using a standardised trypsinisation protocol. Cromolyn was purchased as a sodium salt while compounds 2, 3, 7, 8 and 26 were synthesised, characterised and purified at the University of Hertfordshire. To prepare stock concentrations (10 mM), cromolyn was dissolved in distilled water while compounds 2, 3, 7, 8 and 26 were dissolved in DMSO.\n(§5) Pancreatic cancer cells (1×10^5 cells/mL) in 100 μL complete cell culture medium were plated in 96-well plates (Sigma-Aldrich, Poole, UK) and incubated overnight at 37° C., 5% CO2 atmosphere. Cromolyn and compounds 2, 3, 7, 8 and 26 were prepared from stocks of 10 mM in serum-free medium and serially diluted to give 1, 10, 100 and 1000 μM. Control samples for this study included cells without any drugs, cell samples with DMSO at the corresponding concentration(s) and media-only samples. Cells were incubated with test compounds for 24, 48 and 72 h. At each time point i.e. 24, 48 and 72 h, CellTiter 960 AQueous Non-Radioactive Cell Proliferation Assay (MTS) (Promega, UK) was added to each well (1:5). Plates were incubated for 90 minutes before reading the absorbance at 492 nm using a Multiskan Ascent 96/384 plate reader (Thermo Scientific, Loughborough, UK). The experiments were repeated three times.\nFor data analysis, background noise (media only wells) was subtracted from all wells. DMSO absorbance at 1, 10, 100 and 1000 μM was subtracted from wells with sample compounds before an average of all four replicates was taken. Data is plotted as mean from three repeats ±SEM with p value set at 0.05."}, "[5]": {"assay": "Solubility in the culture media of the proliferation assay", "type": "physicochemical", "conditions": "at 100 μM and above", "description": "as §5"}, "S100P binding to RAGE": {"target": "T2, S100P binding to RAGE (Homo sapiens, UniProt P25815)", "T2 sequence (P25815 1-95)": "T1 sequence (P25815 1-95)", "assay": "S100P/RAGE functional assay (ELISA of S100P-RAGE binding)", "conditions": "initial results", "description": "FIGS. 6A to 6H illustrate the effect of drugs on the binding between 1 μM S100P and 30 nM RAGE in ELISA assay wherein n=3 from one plate.\nELISA assay of S100P-RAGE binding was carried out using the method of Padilla et al. (Padilla, L., Dakhel, S., & Hernandez, J. (2014). S100 to receptor for advanced glycation end-products binding assay: Looking for inhibitors. Biochemical and Biophysical Research Communications, 446(1), 404-409. doi:10.1016/j.bbrc.2014.02.143). FIGS. 6A to 6H illustrate the effect of drugs on the binding between 1 μM S100P and 30 nM RAGE in ELISA assay wherein n=3 from one plate."}, "BxPC-3 cells [6]": {"system": "BxPC-3 cells", "assay": "Trypan blue counting of BxPC-3 cells", "type": "cell-based, Human", "conditions": "1 μM"}, "[7]": {"conditions": "in vivo; cited from earlier work"}, "[8]": {"conditions": "except at the higher concentration of 1000 μM"}}}
{"molecule": "5-methyl cromolyn", "values": [{"measurement": "concentration inhibiting S100P/RAGE function", "setting": "S100P/RAGE function", "value": 100, "unit": "nmol/L"}]}
{"molecule": "O=C(O)c1cccc(N2C(=O)C3C4c5ccccc5C([N+](=O)[O-])(c5ccccc54)C3C2=O)c1", "note": "(centres unmarked) [Compound 2, 3-(9-Nitro-12,14-dioxo-9,10-dihydro-9,10-[3,4]epipyrroloanthracen-13-yl)benzoic acid]", "values": [{"measurement": "effect on invasion of Panc-1 cells", "setting": "Panc-1 cells [1]", "value": "No effect"}, {"measurement": "anti-proliferation effect on Panc-1 cells", "setting": "Panc-1 cells [2]", "value": "a similar effect was also observed"}, {"measurement": "reduction in invasion of BxPC-3 cells across the Matrigel matrix", "setting": "BxPC-3 cells [3]; 100 μM", "value": 17, "unit": "%"}, {"measurement": "reduction in invasion of BxPC-3 cells across the Matrigel matrix", "setting": "BxPC-3 cells [3]; 500 μM", "value": 100, "unit": "%"}, {"measurement": "inhibition of growth of BxPC-3 relative to control", "setting": "BxPC-3 cells [4]; all three concentrations, after 72 h, p<0.001", "value": "noticeable inhibition of growth"}]}
{"molecule": "CCOC(=O)c1cccc(N2C(=O)C3C4c5ccccc5C([N+](=O)[O-])(c5ccccc54)C3C2=O)c1", "note": "(centres unmarked) [Compound 3, Ethyl 3-(9-nitro-12,14-dioxo-9,10-dihydro-9,10-[3,4]epipyrroloanthracen-13-yl)benzoate]", "values": [{"measurement": "anti-proliferative effect on BxPC-3 compared to 2", "setting": "BxPC-3 cells [4]; after 24 h", "value": "more pronounced anti-proliferative effect"}, {"measurement": "state of BxPC-3 cells compared to the control", "setting": "BxPC-3 cells [4]; after 48 h", "value": "the cells appear to be recovering albeit only slightly"}, {"measurement": "solubility issues in the culture media", "setting": "[5]", "value": "precipitating in the culture media"}]}
{"molecule": "O=C1C2C3c4ccccc4C([N+](=O)[O-])(c4ccccc43)C2C(=O)N1c1ccccc1", "note": "(centres unmarked) [Compound 7, 9-Nitro-13-phenyl-9,10-dihydro-9,10-[3,4]epipyrroloanthracene-12,14-dione]", "values": [{"measurement": "anti-proliferation effect on Panc-1 cells", "setting": "Panc-1 cells [2]", "value": "inhibition was unfortunately observed"}, {"measurement": "anti-proliferative effect on BxPC-3", "setting": "BxPC-3 cells [4]", "value": "inhibited proliferation"}, {"measurement": "solubility issues in the culture media", "setting": "[5]", "value": "precipitating in the culture media"}]}
{"molecule": "O=C(O)c1ccc(N2C(=O)C3C4c5ccccc5C([N+](=O)[O-])(c5ccccc54)C3C2=O)cc1", "note": "(centres unmarked) [Compound 8, 4-(9-Nitro-12,14-dioxo-9,10-dihydro-9,10-[3,4]epipyrroloanthracen-13-yl)benzoic acid]", "values": [{"measurement": "inhibition of S100P binding to RAGE", "setting": "S100P binding to RAGE", "value": "nanomolar inhibition"}, {"measurement": "viability of BxPC-3 cells by trypan blue counting", "setting": "BxPC-3 cells [6]", "value": "still viable"}, {"measurement": "metabolic activity of BxPC-3 cells", "setting": "BxPC-3 cells [4]; 1 μM", "value": "no metabolic activity was observed"}, {"measurement": "anti-proliferative effect on BxPC-3", "setting": "BxPC-3 cells [4]", "value": "more pronounced"}, {"measurement": "solubility issues in the culture media", "setting": "[5]", "value": "precipitating in the culture media"}]}
{"molecule": "O=C(O)c1cccc(N2C(=O)C3C4c5ccccc5C(c5ccccc54)C3C2=O)c1", "note": "(centres unmarked) [Compound 26, 3-(12,14-Dioxo-9,10-dihydro-9,10-[3,4]epipyrroloanthracen-13-yl)benzoic acid]", "values": [{"measurement": "anti-proliferation effect on Panc-1 cells", "setting": "Panc-1 cells [2]", "value": "inhibition was unfortunately observed"}, {"measurement": "anti-proliferative effect on BxPC-3", "setting": "BxPC-3 cells [4]", "value": "inhibited proliferation"}]}
{"molecule": "O=C(O)c1cc(=O)c2c(OCC(O)COc3cccc4oc(C(=O)O)cc(=O)c34)cccc2o1", "note": "[cromolyn, reference compound]", "values": [{"measurement": "effect against the proliferation of Panc-1 cells", "setting": "Panc-1 cells [2]; [8]", "value": "no significant effect"}, {"measurement": "bioavailability", "setting": "[7]", "value": "low bioavailability"}, {"measurement": "reduction in invasion of BxPC-3 cells across the Matrigel matrix", "setting": "BxPC-3 cells [3]; 100 μM", "value": 20, "unit": "%"}, {"measurement": "effect against the proliferation of BxPC-3 cells", "setting": "BxPC-3 cells [4]; [8]", "value": "no significant effect"}]}
